Reference: patent US20260373248A1, “DEGRADABLE PEPTOIDS” (Medici Therapeutics, Inc., priority 2023, published 2026)
Non-standard residues stand in square brackets, D forms with d. Residues, ends and D or L forms follow the SMILES beside them. Gly(N-(3-decanoyloxypropyl)) = CCCCCCCCCC(=O)OCCCNCC(=O)O; N(3-lauroyloxypropyl)Gly = CCCCCCCCCCCC(=O)OCCCNCC(=O)O; N(2-decanoyloxyethyl)Gly = CCCCCCCCCC(=O)OCCNCC(=O)O; Gly(N-(CH2)3O-octanoyl) = CCCCCCCC(=O)OCCCNCC(=O)O; N(2-ethylhexyl)Gly = CCCCC(CC)CNCC(=O)O; N(CH(CH2OH)2)Gly = O=C(O)CNC(CO)CO; N(octyl)Gly = CCCCCCCCNCC(=O)O

Tests used:
[1] = Delivery vehicle size and polydispersity by dynamic light scattering; assay type: physicochemical
Outline: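 Dynamic light scattering in PBS gave size and polydispersity of peptoid LNPs. These were dialyzed overnight at 4 °C into tris-sucrose buffer pH 7.4 after microfluidic 1:3 volume mixing of mRNA in pH 5.0 citrate with ethanol lipids (peptoid:DSPC:cholesterol:DMG-PEG2000 20:1.79:7.16:1.84 w/w).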

mRNA = mRNA encapsulation (modified Quant-iT RiboGreen assay); assay type: physicochemical; conditions: for mean percent encapsulation of RNA: RiboGreen, without vs with Triton X-100; for % Encapsulation: mRNA
Outline: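 Encapsulated fraction was calculated by comparing RiboGreen signal (excitation 485 nm, emission 530 nm) of intact particles with that of particles lysed by a 10-min Triton X-100 treatment. Total mRNA concentration was taken from the lysed samples.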

firefly luciferase = assay: In vivo firefly luciferase expression after intravenous injection of fLuc mRNA delivery vehicles (IVIS imaging); design: species or system female Balb/c mice; conditions: for Total Flux: mice, 2.5 ug fLuc mRNA intravenously, 6 hours post-injection; for Total Flux (luciferase expression): fLuc mRNA, intravenous, Balb/c mice
Outline: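 Read-out is total photon flux per region of interest, from whole-body IVIS images taken 10 minutes after IP D-luciferin (30 mg/mL, 10 μL/g) and from excised organs. Female Balb/c mice aged 6-8 weeks received 2.5 ug fLuc mRNA Nutshells intravenously 6 hours before imaging.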

hEPO = assay: Quantification of hEPO in serum after IV injection of mRNA (Human EPO ELISA); assay type: in vivo; conditions: Balb/c mice, 2.5 μg mRNA IV, serum after 6 hours
Description: Balb/c mice were treated with 2.5 μg of mRNA coding for human erythropoiten via IV injection according to a similar method as in Example 4. hEPO protein in the serum was quantified after 6 hours using the Human EPO ELISA Kit from Invitrogen (catalog #BMS2035-2). Wash buffer (PBS with 1% tween 20) and assay buffer (PBS with 1% tween 20, 10% BSA) were prepared from a 20× concentrate with milli-Q water. Serum samples were diluted with PBS according to expected EPO concentration, with a 50× dilution for low expression samples and up to a 30,000× dilution for samples expected to have high expression. Microwell strips were washed in a plate washer with wash buffer and tapped on an absorbent pad to remove excess buffer. 100 μL of sample diluent were added to each well that will be used for the standard curve. 50 μL of sample diluent was added to each sample well.
The standard curve was prepared by reconstituting the human erythropoietin standard by adding the volume of water listed on the vial label. Standard was swirled gently and allowed to reconstitute for 10 minutes prior to use, then 100 μL is added to standard wells and mixed well. 100 μL from standard wells were then transferred to sample wells and mixed well. This was repeated 5 times to produce 2 columns of standard dilutions from 100 to 1.6 mIU/mL. 100 μL was discarded from the last microwells. The final 2 wells contained 100 μL of sample diluent and served as a blank. An external standard was also included to facilitate a mIU/mL conversion to ng/mL. The same serial dilution method was repeated starting with the external standard at 6.25 ng/mL. Once the standards were added, 50 μL of each sample was added in duplicate to the sample wells. Next, the biotin-conjugate was prepared by diluting 1:100 in assay buffer. 50 μL of biotin-conjugate was added to all wells and the plate was covered with a plate seal and shaken at room temperature for 1 hour. During the last few minutes of shaking, streptavidin-HRP was prepared by diluting 1:100 in assay buffer. The plate was washed on a plate washer and tapped on an absorbent pad to remove remaining wash buffer.
100 μL of the diluted streptavidin-HRP was added to each well and the plate was sealed and shaken for 15 minutes at room temperature. After 15 minutes, the plate seal was removed and the plate was washed on a plate washer and remaining wash buffer tapped out on an absorbent pad. 100 μL of TMB substrate was added to all wells and the plate was incubated for 10 minutes at room temperature out of direct light. Color development was checked every few minutes and the assay was stopped when the highest standard was dark blue. The reaction was stopped by pipetting 100 μL of stop solution into each well. Immediately after stop solution was added, the plate was gently tapped to ensure the solution was mixed. Absorbance was then read at 450 nm for each well. A standard curve was plotted for both the kit-provided standards (mIU/mL) and the external standard (ng/mL) and fit using Prism. Sample absorbances that fell within the standard curve were interpolated and adjusted for dilution (including a 2× assay dilution). Samples that were not within the standard curve were repeated at an adjusted dilution.

[2] = Peptoid quantity remaining in liver by HPLC-TOF mass spectrometry; assay type: in vivo; conditions: liver homogenate
Description: Peptoid quantity in liver was determined via high-performance liquid chromatography coupled with time-of-flight mass spectrometer (HPLC-TOF). The entire liver was weighed, and then two sections were isolated using a provided biopsy punch for liver homogenization. Liver homogenate sample was prepared by resuspending 20 mg liver tissue in 400 μL extraction solvent (IPA/MeOH=8/2) containing an internal standard (400 pg/μL) followed by bead homogenization (45 sec per cycle for 3-4 cycles). Homogenized samples were centrifuged at 12,000 rpm for 8 min at 6 °C. The resulting supernatant was collected and stored at −20 °C for further LC analysis. 5 μL of the resulting supernatant sample from solid or liquid tissue was injected into a BEH C8 column on an Agilent 1290 Infinity II liquid chromatograph coupled with an Agilent 6230 LC-TOF system. Concentrations of peptoids were determined by a linear calibration curve (linear range:0.2-50 μg/g for solid tissue). Standard calibration curve solutions were prepared by spiking untreated liver followed by homogenization and centrifugation.

luciferase = assay: Luciferase expression after local (intramuscular or subcutaneous) administration of mRNA; assay type: in vivo; conditions: mRNA 0.01 mpk, 6 hours; for IM Flux: intramuscular; for SC Flux: subcutaneous
Outline: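 Bioluminescence read 6 hours after fLuc mRNA dosing (peptoid Nutshells; 0.01 mpk S.C. or I.M., 0.1 mpk intratumoral) in female Balb/c mice aged 6-8 weeks. D-luciferin injected IP, whole-body imaging after 10 minutes, then organ imaging; total photon flux per region of interest.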

[3] = DLS in PBS, peptoid:DSPC:Cholesterol:DMG-PEG2000 weight ratio 20:1.79:7.16:1.84, mRNA

Structure (SMILES)	PDI [1, 3]	Particle Size [1, 3]	mean percent encapsulation of RNA (mRNA)	Total Flux (firefly luciferase)	hEPO (hEPO)	% of injected dose remaining in liver [2]	IM Flux (luciferase)	SC Flux (luciferase)	Particle Size ([1]; formulation recipe D22)	% Encapsulation (mRNA; formulation recipe D22)	Total Flux (luciferase expression) (firefly luciferase; formulation recipe D22)	Particle Size ([1]; formulation recipe R5)	Particle Size ([1]; formulation recipe R7)	Particle Size ([1]; formulation recipe R9)	% Encapsulation (mRNA; formulation recipe R5)	% Encapsulation (mRNA; formulation recipe R7)	% Encapsulation (mRNA; formulation recipe R9)	Total Flux (luciferase expression) (firefly luciferase; formulation recipe R5)	Total Flux (luciferase expression) (firefly luciferase; formulation recipe R7)	Total Flux (luciferase expression) (firefly luciferase; formulation recipe R9)	other results
CCCCCCCC(=O)OCCCN(CC(=O)N(CC(=O)N(CC(=O)N(CCCOC(=O)CCCCCCC)CC(=O)N(CC(N)=O)CC(CC)CCCC)CC(CC)CCCC)CC(CC)CCCC)C(=O)CN(CC(CC)CCCC)C(=O)CNC(CO)CO (stereo not shown) [Compound 4] (H-[N(CH(CH2OH)2)Gly][N(2-ethylhexyl)Gly][Gly(N-(CH2)3O-octanoyl)][N(2-ethylhexyl)Gly][N(2-ethylhexyl)Gly][Gly(N-(CH2)3O-octanoyl)][N(2-ethylhexyl)Gly]-NH2)	0.113	74.4 nm	94.6%	4.33E+09 p/s	291 ng/mL	5.98%	5.26E+08 p/s	5.11E+08 p/s													
CCCCCCCCCC(=O)OCCCN(CC(=O)N(CC(=O)N(CC(=O)N(CCCOC(=O)CCCCCCCCC)CC(=O)N(CC(N)=O)CC(CC)CCCC)CC(CC)CCCC)CC(CC)CCCC)C(=O)CN(CC(CC)CCCC)C(=O)CNC(CO)CO (stereo not shown) [Compound 5] (H-[N(CH(CH2OH)2)Gly][N(2-ethylhexyl)Gly][Gly(N-(3-decanoyloxypropyl))][N(2-ethylhexyl)Gly][N(2-ethylhexyl)Gly][Gly(N-(3-decanoyloxypropyl))][N(2-ethylhexyl)Gly]-NH2)	0.076	86.2 nm	84.8%	1.77E+09 p/s	278 ng/mL	14.71%	1.62E+08 p/s	1.71E+08 p/s	86.2 nm	84.8%	1.77E+09 p/s										Particle Size ([1]; formulation recipe O3): 81.6 nm; Particle Size ([1]; formulation recipe O7): 51.7 nm; % Encapsulation (mRNA; formulation recipe O3): 82.2%; % Encapsulation (mRNA; formulation recipe O7): 93.5%; Total Flux (luciferase expression) (firefly luciferase; formulation recipe O3): 3.25E+09 p/s; Total Flux (luciferase expression) (firefly luciferase; formulation recipe O7): 1.93E+09 p/s
CCCCCCCCCCCC(=O)OCCCN(CC(=O)N(CC(=O)N(CC(=O)N(CCCOC(=O)CCCCCCCCCCC)CC(=O)N(CC(N)=O)CC(CC)CCCC)CC(CC)CCCC)CC(CC)CCCC)C(=O)CN(CC(CC)CCCC)C(=O)CNC(CO)CO (stereo not shown) [Compound 6] (H-[N(CH(CH2OH)2)Gly][N(2-ethylhexyl)Gly][N(3-lauroyloxypropyl)Gly][N(2-ethylhexyl)Gly][N(2-ethylhexyl)Gly][N(3-lauroyloxypropyl)Gly][N(2-ethylhexyl)Gly]-NH2)	0.125	83.9 nm	77.1%	1.67E+09 p/s	245 ng/mL	13.73%	1.22E+08 p/s	1.14E+08 p/s													
CCCCCCCCCC(=O)OCCN(CC(=O)N(CCOC(=O)CCCCCCCCC)CC(=O)N(CC(=O)N(CCOC(=O)CCCCCCCCC)CC(=O)N(CCOC(=O)CCCCCCCCC)CC(=O)N(CC(N)=O)CC(CC)CCCC)CC(CC)CCCC)C(=O)CNC(CO)CO (stereo not shown) [Compound 16] (H-[N(CH(CH2OH)2)Gly][N(2-decanoyloxyethyl)Gly][N(2-decanoyloxyethyl)Gly][N(2-ethylhexyl)Gly][N(2-decanoyloxyethyl)Gly][N(2-decanoyloxyethyl)Gly][N(2-ethylhexyl)Gly]-NH2)	0.135	90.0 nm	55.7%	9.70E+09 p/s	422 ng/mL	6.65%	3.09E+08 p/s	5.62E+08 p/s				57.2 nm	69.1 nm	59.0 nm	92.2%	87.8%	93.3%	6.72E+08 p/s	1.81E+09 p/s	1.14E+09 p/s	Particle Size ([1]; formulation recipe F2): 71.0 nm; Particle Size ([1]; formulation recipe R1): 59.8 nm; % Encapsulation (mRNA; formulation recipe F2): 90.8%; % Encapsulation (mRNA; formulation recipe R1): 89.4%; Total Flux (luciferase expression) (firefly luciferase; formulation recipe F2): 2.35E+09 p/s; Total Flux (luciferase expression) (firefly luciferase; formulation recipe R1): 5.73E+08 p/s
CCCCCCCCCC(=O)OCCCN(CC(=O)N(CC(N)=O)CC(CC)CCCC)C(=O)CN(CCCCCCCC)C(=O)CN(CC(CC)CCCC)C(=O)CN(CCCOC(=O)CCCCCCCCC)C(=O)CN(CCCCCCCC)C(=O)CNC(CO)CO (stereo not shown) [Compound 32] (H-[N(CH(CH2OH)2)Gly][N(octyl)Gly][Gly(N-(3-decanoyloxypropyl))][N(2-ethylhexyl)Gly][N(octyl)Gly][Gly(N-(3-decanoyloxypropyl))][N(2-ethylhexyl)Gly]-NH2)	0.156	89.3 nm	59.3%	7.45E+09 p/s	642 ng/mL	8.18%	1.45E+08 p/s	9.18E+08 p/s	89.3 nm	59.3%	7.45E+09 p/s	65.5 nm	65.1 nm	64.9 nm	86.0%	79.1%	92.7%	5.34E+08 p/s	1.41E+09 p/s	8.16E+08 p/s	Particle Size ([1]; formulation recipe R2): 71.0 nm; Particle Size ([1]; formulation recipe R6): 68.4 nm; % Encapsulation (mRNA; formulation recipe R2): 88.2%; % Encapsulation (mRNA; formulation recipe R6): 93.7%; Total Flux (luciferase expression) (firefly luciferase; formulation recipe R2): 7.39E+08 p/s; Total Flux (luciferase expression) (firefly luciferase; formulation recipe R6): 9.19E+08 p/s
